Test results: ChEMBL document CHEMBL1671675, “Population pharmacokinetics of ganciclovir after intravenous ganciclovir and oral valganciclovir administration in solid organ transplant patients infected with cytomegalovirus” (Antimicrob Agents Chemother, 2009)

Key:
[1] = Bioavailability in solid organ transplant patient exhibiting 57 mL/min creatinine clearance infected with cytomegalovirus at 5 mg/kg, iv bid for 5 days followed by 900 mg of oral valganciclovir dosed twice daily for 16 days dose adjustment for renal function by basal population pharmacokinetic model; conditions: human, in vivo
[2] = test system: Homo sapiens; assay: (§1) Drug absorption in solid organ transplant patient exhibiting […] creatinine clearance infected with cytomegalovirus assessed as first-order absorption rate constant at 5 mg/kg, iv bid for 5 days followed by 900 mg of oral valganciclovir dosed twice daily for 16 days dose adjustment for renal function; assay type: ADME, organism-based; design: dose 5 mg/kg, route oral; conditions: in vivo
[3] = test system: Homo sapiens; assay: (§2) Central volume of distribution in solid organ transplant patient exhibiting […] creatinine clearance infected with cytomegalovirus at 5 mg/kg, iv bid for 5 days followed by 900 mg of oral valganciclovir dosed twice daily for 16 days dose adjustment for renal function by basal population pharmacokinetic model; assay type: ADME, organism-based; design: dose 5 mg/kg, route oral; conditions: in vivo
[4] = test system: Homo sapiens; assay: (§3) Clearance in solid organ transplant patient exhibiting […] creatinine clearance infected with cytomegalovirus at 5 mg/kg, iv bid for 5 days followed by 900 mg of oral valganciclovir dosed twice daily for 16 days dose adjustment for renal function by final population pharmacokinetic model; assay type: ADME, organism-based; design: dose 5 mg/kg, route oral; conditions: in vivo
[5] = test system: Homo sapiens; assay: (§4) Clearance in solid organ transplant patient exhibiting […] creatinine clearance infected with cytomegalovirus at 5 mg/kg, iv bid for 5 days followed by 900 mg of oral valganciclovir dosed twice daily for 16 days dose adjustment for renal function by basal population pharmacokinetic model; assay type: ADME, organism-based; design: dose 5 mg/kg, route oral; conditions: in vivo
[6] = test system: Homo sapiens; assay: as §4, with “Intercompartmental clearance between central and peripheral compartments” for “Clearance”; assay type: ADME, organism-based; design: dose 5 mg/kg, route oral; conditions: in vivo
[7] = Bioavailability in solid organ transplant patient exhibiting […] creatinine clearance infected with cytomegalovirus at 5 mg/kg, iv bid for 5 days followed by 900 mg of oral valganciclovir dosed twice daily for 16 days dose adjustment for renal function by final population pharmacokinetic model; assay type: ADME, organism-based; conditions: human, in vivo
[8] = test system: Homo sapiens; assay: as §1, with “function by basal population pharmacokinetic model” for “function”; assay type: ADME, organism-based; design: dose 5 mg/kg, route oral; conditions: in vivo
[9] = test system: Homo sapiens; assay: as §3, with “Intercompartmental clearance between central and peripheral compartments” for “Clearance”; assay type: ADME, organism-based; design: dose 5 mg/kg, route oral; conditions: in vivo
[10] = test system: Homo sapiens; assay: as §2, with “final” for “basal”; assay type: ADME, organism-based; design: dose 5 mg/kg, route oral; conditions: in vivo

Q: For `Nc1nc(O)c2ncn(COC(CO)CO)c2n1` [GANCICLOVIR], which bioavailability [1] is on record?
A: 76%

Q: And the Ka [2]?
A: 0.895 h⁻¹

Q: And the Vd [3]?
A: 32 L

Q: And the CL [4]?
A: 7.49 L/h

Q: What about the CL [5] of the same compound?
A: 6.34 L/h

Q: What about the CL [6] of the same compound?
A: 9.65 L/h

Q: What about the bioavailability [7] of the same compound?
A: 82.5%

Q: And the Ka [8]?
A: 0.971 h⁻¹

Q: What about the CL [9] of the same compound?
A: 10.2 L/h

Q: And the Vd [10]?
A: 31.9 L
